Reference: patent publication US20200288713A1, “PESTICIDALLY ACTIVE PYRAZOLE DERIVATIVES” (SYNGENTA PARTICIPATIONS AG, priority 2017, published 2020)
Like-named read-outs stand apart in the source and are kept apart here.

Columns and labels:
Assay type in all cases: in vivo
Euschistus heros = Euschistus heros (neotropical brown stink bug) feeding/contact activity; conditions: 120 h
Protocol: Euschistus heros (Neotropical Brown Stink Bug): Feeding/Contact Activity
Soybean leaves on agar in 24-well microtiter plates were sprayed with aqueous test solutions prepared from 10′000 ppm DMSO stock solutions. After drying the leaves were infested with N2 nymphs. The samples were assessed for mortality 5 days after infestation.

Diabrotica balteata = Diabrotica balteata (corn root worm) mortality test on maize sprouts; conditions: 96 h, application rate 200 ppm, L2 larvae on sprayed maize sprouts, assessed 4 days after infestation
Protocol: Diabrotica balteata (Corn Root Worm):
Maize sprouts placed onto an agar layer in 24-well microtiter plates were treated with aqueous test solutions prepared from 10′000 ppm DMSO stock solutions by spraying. After drying, the plates were infested with L2 larvae (6 to 10 per well). The samples were assessed for mortality 4 days after infestation.

Plutella xylostella = Plutella xylostella (diamond back moth) feeding/contact activity; conditions: 120 h
Protocol: Plutella xylostella (Diamond Back Moth): Feeding/Contact Activity
24-well microtiter plates with artificial diet were treated with aqueous test solutions prepared from 10′000 ppm DMSO stock solutions by pipetting. After drying, the plates were infested with L2 larvae (10 to 15 per well). The samples were assessed for mortality 5 days after infestation.

Spodoptera littoralis = Spodoptera littoralis (Egyptian cotton leaf worm) feeding/contact activity; conditions: foliar, 72 h
Protocol: Spodoptera littoralis (Egyptian cotton leaf worm): Feeding/contact activity Cotton leaf discs were placed onto agar in 24-well microtiter plates and sprayed with aqueous test solutions prepared from 10′000 ppm DMSO stock solutions. After drying the leaf discs were infested with five L1 larvae. The samples were assessed for mortality 3 days after infestation.

Myzus persicae = Myzus persicae (green peach aphid) feeding/contact activity; conditions: foliar, 144 h
Protocol: Myzus persicae (Green Peach Aphid): Feeding/Contact Activity
(§1) Sunflower leaf discs were placed onto agar in a 24-well microtiter plate and sprayed with aqueous test solutions prepared from 10′000 ppm DMSO stock solutions. After drying, the leaf discs were infested with an aphid population of mixed ages. The samples were assessed for mortality 6 days after infestation.

Thrips tabaci = Thrips tabaci (onion thrips) feeding/contact activity; conditions: foliar, 144 h
Protocol: Thrips tabaci (Onion Thrips): Feeding/Contact Activity
as §1, with “on” for “onto”, “in” for “in a”, “plates” for “plate”, “drying” for “drying,”, “a thrips” for “an aphid”

Tetranychus urticae = Tetranychus urticae (two-spotted spider mite) feeding/contact activity; conditions: foliar, 192 h, read-out: mortality on mixed population (mobile stages)
Protocol: Tetranychus urticae (Two-Spotted Spider Mite): Feeding/Contact Activity
Bean leaf discs on agar in 24-well microtiter plates were sprayed with aqueous test solutions prepared from 10′000 ppm DMSO stock solutions. After drying the leaf discs were infested with a mite population of mixed ages. The samples were assessed for mortality on mixed population (mobile stages) 8 days after infestation.

[1] = application rate 200 ppm, N2 nymphs on sprayed soybean leaves, assessed 5 days after infestation, read-out: mortality
[2] = application rate 200 ppm, L2 larvae on treated artificial diet, assessed 5 days after infestation, read-out: mortality
[3] = application rate 200 ppm, L1 larvae on sprayed cotton leaf discs, assessed 3 days after infestation, read-out: mortality
[4] = application rate 200 ppm, aphid population of mixed ages on sprayed sunflower leaf discs, assessed 6 days after infestation, read-out: mortality
[5] = application rate 200 ppm, thrips population of mixed ages on sprayed sunflower leaf discs, assessed 6 days after infestation, read-out: mortality
[6] = application rate 200 ppm, mite population of mixed ages on sprayed bean leaf discs, assessed 8 days after infestation

Measured: mortality at 200 ppm

CN(C(=O)c1cc(-c2cnn(-c3c(OC(F)F)c(C(F)(F)C(F)(F)F)nn3C)c2)ccc1C(F)(F)F)C1(C#N)CC1 [Compound 2, N-(1-cyanocyclopropyl)-5-[1-[4-(difluoromethoxy)-2-methyl-5-(1,1,2,2,2-pentafluoroethyl)pyrazol-3-yl]pyrazol-4-yl]-N-methyl-2-(trifluoromethyl)benzamide]
≥ 80%: Euschistus heros; [1] | Diabrotica balteata | Plutella xylostella; [2] | Spodoptera littoralis; [3] | Myzus persicae; [4] | Thrips tabaci; [5] | Tetranychus urticae; [6]

Cn1nc(C(F)(F)C(F)(F)F)c(OC(F)F)c1-n1cc(-c2ccc(C(F)(F)F)c(C(=O)N(CC#N)C3(C#N)CC3)c2)cn1 [Compound 8, N-(1-cyanocyclopropyl)-N-(cyanomethyl)-5-[1-[4-(difluoromethoxy)-2-methyl-5-(1,1,2,2,2-pentafluoroethyl)pyrazol-3-yl]pyrazol-4-yl]-2-(trifluoromethyl)benzamide]
≥ 80%: Euschistus heros; [1] | Plutella xylostella; [2] | Spodoptera littoralis; [3] | Myzus persicae; [4] | Thrips tabaci; [5] | Tetranychus urticae; [6]

CCN(C(=O)c1cc(-c2cnn(-c3c(OC(F)F)c(C(F)(F)C(F)(F)F)nn3C)c2)ccc1C(F)(F)F)C1(C#N)CC1 [Compound 3, N-(1-cyanocyclopropyl)-5-[1-[4-(difluoromethoxy)-2-methyl-5-(1,1,2,2,2-pentafluoroethyl)pyrazol-3-yl]pyrazol-4-yl]-N-ethyl-2-(trifluoromethyl)benzamide]
≥ 80%: Euschistus heros; [1] | Diabrotica balteata | Plutella xylostella; [2] | Spodoptera littoralis; [3] | Myzus persicae; [4] | Thrips tabaci; [5] | Tetranychus urticae; [6]

CCOC(=O)N(C(=O)c1cc(-c2cnn(-c3c(OC(F)F)c(C(F)(F)C(F)(F)F)nn3C)c2)ccc1C(F)(F)F)C1(C#N)CC1 [Compound 9, ethyl N-(1-cyanocyclopropyl)-N-[5-[1-[4-(difluoromethoxy)-2-methyl-5-(1,1,2,2,2-pentafluoroethyl)pyrazol-3-yl]pyrazol-4-yl]-2-(trifluoromethyl)benzoyl]carbamate]
≥ 80%: Euschistus heros; in Glycine max | Plutella xylostella | Spodoptera littoralis | Myzus persicae | Thrips tabaci | Tetranychus urticae

COCN(C(=O)c1cc(-c2cnn(-c3c(OC(F)F)c(C(F)(F)C(F)(F)F)nn3C)c2)ccc1C(F)(F)F)C1(C#N)CC1 [Compound 7, N-(1-cyanocyclopropyl)-5-[1-[4-(difluoromethoxy)-2-methyl-5-(1,1,2,2,2-pentafluoroethyl)pyrazol-3-yl]pyrazol-4-yl]-N-(methoxymethyl)-2-(trifluoromethyl)benzamide]
≥ 80%: Euschistus heros; [1] | Plutella xylostella; [2] | Spodoptera littoralis; [3] | Myzus persicae; [4] | Thrips tabaci; [5] | Tetranychus urticae; [6]

Cn1nc(C(F)(F)C(F)(F)F)c(OC(F)F)c1-n1cc(-c2ccc(C(F)(F)F)c(C(=O)NC3(C#N)CC3)c2)cn1 [Compound 1, N-(1-cyanocyclopropyl)-5-[1-[4-(difluoromethoxy)-2-methyl-5-(1,1,2,2,2-pentafluoroethyl)pyrazol-3-yl]pyrazol-4-yl]-2-(trifluoromethyl)benzamide]
≥ 80%: Euschistus heros; [1] | Diabrotica balteata | Plutella xylostella; [2] | Spodoptera littoralis; [3] | Myzus persicae; [4] | Thrips tabaci; [5] | Tetranychus urticae; [6]

C#CCN(C(=O)c1cc(-c2cnn(-c3c(OC(F)F)c(C(F)(F)C(F)(F)F)nn3C)c2)ccc1C(F)(F)F)C1(C#N)CC1 [Compound 10]
≥ 80%: Euschistus heros; [1] | Plutella xylostella; [2] | Spodoptera littoralis; [3] | Myzus persicae; [4] | Thrips tabaci; [5] | Tetranychus urticae; [6]

CC(=O)N(C(=O)c1cc(-c2cnn(-c3c(OC(F)F)c(C(F)(F)C(F)(F)F)nn3C)c2)ccc1C(F)(F)F)C1(C#N)CC1 [Compound 6, N-acetyl-N-(1-cyanocyclopropyl)-5-[1-[4-(difluoromethoxy)-2-methyl-5-(1,1,2,2,2-pentafluoroethyl)pyrazol-3-yl]pyrazol-4-yl]-2-(trifluoromethyl)benzamide]
≥ 80%: Euschistus heros; [1] | Plutella xylostella; [2] | Spodoptera littoralis; [3] | Myzus persicae; [4] | Thrips tabaci; [5] | Tetranychus urticae; [6]

Cn1nc(C(F)(F)C(F)(F)F)c(OC(F)F)c1-n1cc(-c2ccc(C(F)(F)F)c(C(=O)N(CC3CC3)C3(C#N)CC3)c2)cn1 [Compound 5, N-(1-cyanocyclopropyl)-N-(cyclopropylmethyl)-5-[1-[4-(difluoromethoxy)-2-methyl-5-(1,1,2,2,2-pentafluoroethyl)pyrazol-3-yl]pyrazol-4-yl]-2-(trifluoromethyl)benzamide]
≥ 80%: Euschistus heros; [1] | Plutella xylostella; [2] | Spodoptera littoralis; [3] | Myzus persicae; [4] | Thrips tabaci; [5]

Cn1nc(C(F)(F)C(F)(F)F)c(OC(F)F)c1-n1cc(-c2ccc(C(F)(F)F)c(C(=O)NC3CC3)c2)cn1 [Compound 4, N-cyclopropyl-5-[1-[4-(difluoromethoxy)-2-methyl-5-(1,1,2,2,2-pentafluoroethyl)pyrazol-3-yl]pyrazol-4-yl]-2-(trifluoromethyl)benzamide]
≥ 80%: Euschistus heros; [1] | Diabrotica balteata | Plutella xylostella; [2] | Spodoptera littoralis; [3] | Myzus persicae; [4] | Thrips tabaci; [5] | Tetranychus urticae; [6]
